The record followed here is US9539298B2, “Lissencephaly therapeutic agent” (OSAKA CITY UNIVERSITY, priority 2010, dated 2017).

This assay deals with LIS1 heterozygous mice (lissencephaly model mice). Put plainly: Behavior analysis: rotor rod test. Type of assay: in vivo, mouse. As to conditions: M2 and M3 groups, 200 μg/g per day oral. The procedure: To conduct a behavior analysis experiment, wild-type mice and Lis1 (^+/−) heterozygous mice were divided into five groups (C group, M1 group, M2 group, M3 group, and M4 group). The details regarding the mice in each group are described below. CE-2 (CLEA Japan, Inc.) was used as mice feed. The wild-type mice and heterozygous mice used for this experiment were prepared in the same method as described in the above section “Preparation of LIS1 gene hetero-deficient mice (LIS1 heterozygous mice).”
M2 group: LIS1 heterozygous mice prepared as follows. SNJ-1945 was dissolved in dimethyl sulfoxide (Sigma, D-5879) at a concentration of 100 mg/ml, and administered to pregnant mice from Day 9.5 of the embryonic period (E9.5) in an amount of 200 μg per gram of maternal body weight per day. The administration was performed by adding SNJ-1945 to mice feed. […]
By adding SNJ-1945 to the mice feed (CE-2, CLEA Japan, Inc.), SNJ-1945 was continuously administered to the mice so that the administration amount became 200 μg per gram of body weight per day through oral administration. For a behavior analysis experiment, 12 to 16 mice were grouped to be subjected to preliminary breeding in the behavior experiment facility for 1 to 2 weeks; thereafter, the behavior of the mice was analyzed at an age of about 9 to 12 weeks. After the behavior analysis experiment, a gene type was determined for all mice. […]

`COCCOCCOC(=O)N[C@@H](CC(C)C)C(=O)N[C@@H](Cc1ccccc1)C(=O)C(=O)NC1CC1` [compound 17, ((1S)-1-((((1S)-1-Benzyl-2,3-dioxo-3-(cyclopropylamino)propyl)amino)carbonyl)-3-methylbutyl)carbamic acid 5-methoxy-3-oxapentyl ester]: where the note is “FIG. 10”, the “motor ability development curve (time on the rod over repeated tests)” value was “positioned between M1 group and C group”. The “total time spent on the rod” value (FIG. 11) is “increased to the extent that there was almost no significant difference from C group”.
